What was measured:
[1] = test system: pERK in MKN1 cells or H358; test: pERK inhibition in MKN1 or H358 cells (In-Cell Western); assay type: cell-based; details: GAPDH normalized, 1 hour with compound, MKN1 or H358 cells (not specified which)
Description: This Example illustrates that exemplary compounds of the present invention prevent KRas-mediated GTP nucleotide exchange mediated by SOS1 to inhibit KRas activity thereby inhibiting the generation of the downstream effector pERK.
(§1) MKN1 cells (15,000/w) or H358 (30,000/w) were seeded in a black clear flat bottom 96-well cell culture plate (Corning, #3904) and incubated at 37° C. overnight. Assay day 1, cells were dosed with compounds of Formula (I) with a […] starting concentration and serially diluted 3x for a total of 9 concentrations. The cells were incubated for 1 hour with the compounds solubilized in DMSO at 37° C. Cells were immediately fixed by adding 50 µL of 4% formaldehyde to all wells in a fume hood and the plates were incubated for 20 minutes at room temperature. The formaldehyde was discarded from the plates and 150 µL of ice-cold methanol was added to permeabilize the cells for 10 minutes at -20° C. The methanol was discarded from each of the plates and any liquid remaining in the plate by tapping the plate against paper towels. Cells were then blocked with 150 µL of Odyssey blocking buffer (LI-COR Biosciences #927-50010) using 0.05% Tween for 1 hour at room temperature on a shaker. The blocking buffer was discarded and 50 µL of primary antibodies pERK (cell signaling Technology #9101L; Rabbit, 1:500) and GapDH (Millipore #MAB34; Mouse, 1:5000) diluted in Odyssey blocking buffer was added. The plates were incubated overnight at 4° C. on a shaker.
On Assay day 2, the primary antibody solution was removed. Each plate was washed 3x times with 150 µL of 1x PBST (PBS + 0.1 % Tween 20) and incubated with 50 µL of secondary antibodies: Anti-Rabbit (LI-COR Biosciences #926-32211) and Anti-Mouse (LI-COR Biosciences #68070) at 1:800 dilution in Odyssey blocking buffer with Tween at room temperature on a shaker for 2 hours (protected from light). The secondary antibody solution as removed and each plate was washed with PBST 3x times. Any liquid remaining was discarded and the plate was imaged using the Licor Odyssey machine according to the manufacturer’s instruction, using a set focus length at 3 mm and both 800 nm and 700 nm filters. The GAPDH normalized scan values for each well were divided by the average of vehicle wells to get the % of pERK inhibition. The IC50 values were then calculated with the Graph pad Prism software.

[2] = molecular target: T1, recombinant human SOS1 polypeptide (amino acids 560-1049) (Homo sapiens, UniProt Q07889); test: HTRF displacement assay, binding to SOS1; details: HTRF displacement of Cy5 labelled tracer, 1-hour incubation, Morrison equation
T1 construct: corresponding to amino acids 560-1049, expressed in E. Coli; His (N); TEV site (N); made in house; host or cells: E. coli
T1 sequence (Q07889 560-1049): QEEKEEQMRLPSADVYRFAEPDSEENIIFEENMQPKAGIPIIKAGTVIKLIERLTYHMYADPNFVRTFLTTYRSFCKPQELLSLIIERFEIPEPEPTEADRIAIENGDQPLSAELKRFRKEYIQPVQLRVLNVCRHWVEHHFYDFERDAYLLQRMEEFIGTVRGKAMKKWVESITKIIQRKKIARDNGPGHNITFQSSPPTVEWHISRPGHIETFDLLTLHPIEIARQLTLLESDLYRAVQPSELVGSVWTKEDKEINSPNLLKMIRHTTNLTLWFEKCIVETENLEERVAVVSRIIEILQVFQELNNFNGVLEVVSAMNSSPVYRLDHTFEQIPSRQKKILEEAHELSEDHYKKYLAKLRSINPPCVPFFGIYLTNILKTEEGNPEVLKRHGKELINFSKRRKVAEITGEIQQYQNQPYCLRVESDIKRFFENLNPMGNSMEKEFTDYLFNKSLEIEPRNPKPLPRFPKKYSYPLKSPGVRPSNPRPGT
Description: The ability of a compound of Formula (I) to bind to SOS1 was measured using a HTRF displacement assay. […] The HTRF ratio was calculated using the formula: [emission ⅟emission 2]*10000.
Background signals were calculated from well with a 10 µM inhibitor, known to inhibit 100% at that concentration. The background subtracted signals were converted to % binding relative to DMSO controls. Data were analyzed using XLFIT software (IDBS) using a Morrison equation for competitive binding and Ki’s were generated for compound of Formula (I).

pERK in NCI-H2052 cells = test: pERK inhibition in NF-2 mutant cell line NCI-H2052; assay type: cell-based; details: Homo sapiens, NCI-H2052 cells (NF-2 mutation), 1 hour with compound
pERK in NCI-H1435 cells = test: pERK inhibition in NF-1 mutant cell line NCI-H1435; assay type: cell-based; details: NCI-H1435 cells (NF-1 mutation), 1 hour with compound
From the text: This Example illustrates that exemplary compounds of the present invention prevent increased KRas-mediated GTP nucleotide exchange mediated by SOS1 in NF-1 mutant cell lines to inhibit KRas activity thereby inhibiting the generation of the downstream effector pERK.
as §1, with “A cell line harboring activating mutation in NF-1 gene, NCI-H1435 (ATCC CRL-5870) and a cell line harboring activating mutation in NF-2 gene, NCI-H2052 (ATCC CRL-5915) were employed in these studies. NCI-H1435 and NCI-2052” for “MKN1”, “(15,000/w)” for “(15,000/w) or H358 (30,000/w)”
On Assay day 2, the primary antibody solution was removed. […] The IC50 values were then calculated with the Graph pad Prism software.

Ki [2] [nM]	IC50 (pERK in NCI-H2052 cells) [nM]	IC50 (pERK in NCI-H1435 cells) [nM]	SMILES	IC50 [1] [nM]
3000	–	–	Cc1c([C@@H](C)Nc2nn(C)c(=O)c3ccc(N4CCOCC4)cc23)cccc1C(F)(F)F [Example 1-4]	–
14	997	522	CNCc1ccccc1-c1csc([C@@H](C)Nc2nn(C)c(=O)c3ccc(N4CCOCC4)cc23)c1 [Example 1-3, (R)methyl-4-((1-(4-(2-((methylamino)methyl)phenyl)thiophenyl)ethyl)amino)-6-morpholinophthalazin-1 (2H)-one]	265
60	> 10000	1090	Cc1c([C@@H](C)Nc2n[nH]c(=O)c3ccc(N4CCOCC4)cc23)cccc1C(F)(F)F [Example 1-1]	1320

The remaining lines, values behind:

SMILES	Ki [2] [nM]	IC50 (pERK in NCI-H2052 cells) [nM]	IC50 (pERK in NCI-H1435 cells) [nM]	IC50 [1] [nM]
Cc1c([C@@H](C)Nc2nn(C)c(=O)c3ccc(N4CCNCC4)cc23)cccc1C(F)(F)F [Example 1-5]	–	–	–	881
CNCc1ccccc1-c1csc([C@@H](C)Nc2n[nH]c(=O)c3ccc(N4CCOCC4)cc23)c1 [Example 1-2]	10	752	311	202
Cc1c([C@@H](C)Nc2n[nH]c(=O)c3ccc(N4CCNCC4)cc23)cccc1C(F)(F)F [Example 1-6]	–	–	–	114
